Results reported in patent US9649298B2, “Cytotoxic substance for use in combination with radiotherapy in cancer treatment” (Fumedica AG, priority 2013, dated 2017).

What was measured:
glioblastoma tumor = experiment: Glioblastoma tumor size after irradiation with 50x50 microbeam array (Example 2) followed by cisplatin; type: in vivo; conditions: Cisplatin administered within 30 min to 1 h after irradiation with 50x50 microbeam array
Text: In this example, CAM were irradiated at the biomedical beamline of ESRF. The generation and preparation of the microbeams occurred basically in the same manner as described in Example 1 according to a second preferred embodiment with the substantially circular cross-section of each microbeam. The difference here however is that behind the multi-slit collimator a second collimator (such as an Archer variable multi-slit collimator) was placed into the path of the first array of microbeams formed by the first collimator. […] A GafChromic radiochromic film type […] But in Example 2 the irradiation rather punctures the tissue. Therefore, the level of exposure of the irradiated tissue is even less lethal and results in a […] chemotherapeutic window (compared to FIG. 4).

[1] = system: U-87 MG human glioblastoma xenographs; experiment: Tumor volume in U-87 MG human glioblastoma xenografts after microbeam radiation (fan-like array) and/or cisplatin; type: in vivo, Balb/c nude mice

N.N.[Cl][Pt][Cl] [Cisplatin, cisplatin]
glioblastoma tumor sizes after treatment (glioblastoma tumor): progressive and significant decrease | tumor sizes after treatment (tumor volume, FIG. 8a) ([1]; double treatment (DT): Cisplatin administered after the MR procedure, within window of increased vascular permeability): progressive and significant decrease | tumor sizes after treatment (tumor volume, FIG. 8a) ([1]; only Cisplatin, single chemotherapeutic treatment, no irradiation): gradual increase in size
